“Also recorded” adds a separate entry of the source.
Legend:
Assay type in all cases: cell-based
p-P70 S6K (Thr389) = assay: Immunoblot of p-P70 S6K (Thr389) in treated A549 cells; conditions: 40 μM, 6 hours; for expression of p-P70 S6K (Thr389), immunoblot: n=3
Experimental: (§1) PTEN antagonizes PI3K/AKT/S6K pathway activation via its lipid phosphatase function (Stambolic et al., 1998, Cell, October 2; 95(1):29-39, Sun H., et al., 1999, Proc Natl Acad Sci USA. 1999 May 25; 96(11):6199-204 and Song, M. S. et al., 2012, Molecular Cell Biology 13, 283-296). A549 lung adenocarcinoma cells were treated with either γ-AAPeptide #43 or #9 for 6 hours to determine the activity of PI3K/AKT/S6K downstream pathway effectors. There was about a 30 percent and about 70 decrease in the phosphorylated, active form of AKT (pAKT-Ser473) upon treatment with 40 μM γ-AAPeptide #43 (FIG. 2A) or about 40 μM γ-AAPeptide #9 (FIG. 2B) respectively. […] However, direct allosteric effects of these compounds on the structure and catalytic function of the PTEN enzyme activity remains highly plausible.
(§2) Protein Isolation and Immuno-blotting. For treatment with γ-AAPeptides, A549 cells were grown to about 50-60% confluency in 6-well plates, treated with indicated amount of γ-AAPeptide and allowed to incubate for 6 hours at about 5% CO2 and 37° C. After about 6 hours, media was aspirated and cells were lysed in ice cold IP Lysis Buffer (25 mM Tris-HCl pH 7.4, about 150 mM NaCl, about 1% NP-40, about 1 mM EDTA, about 5% glycerol) supplemented with about 100× protease inhibitor cocktail (Sigma Aldrich, St. Louis, Mo.), phosphatase inhibitor cocktail (final concentration about 10 mM sodium azide, about 10 mM NaF, about 4 mM sodium orthovanadate, about 10 mM sodium-molybdate dehydrate, about 4 mM sodium-tartrate dibasic dehydrate, about 5 mM EDTA disodium dehydrate, about 2 mM imidazole), about 1 mM DTT and about 1 mM PMSF. Samples were sonicated at about 10% amplitude on a digital sonifier (Branson Ultrasonics, Dabury, Conn.), centrifuged at about 14,000 rpm for about 10 minutes and the supernatant was collected. Protein concentration was determined using Bradford Dye Reagent (BioRad, Hercules, Calif.). The remaining supernatant was boiled in about 100 μL of 2× Laemmli Buffer containing about 5% β-mercaptoethanol (Sigma Aldrich, St. Louis, Mo.) and subjected to SDS-PAGE gel analysis, followed by immunoblotting. About 20 μg of total proteins from A549 cell extract were separated on a about 12% SDS-PAGE gel and electro-blotted to nitrocellulose membranes (about 0.45 μm; GE Healthcare, Pittsburgh, Pa.). Blots were blocked with about 5% nonfat dry milk or bovine serum albumin in TBST buffer (about 10 mM Tris, pH about 8, about 150 mM NaCl, about 0.1% Tween 20) and incubated with indicated primary antibodies (Table 1). Peroxidase conjugated mouse or rabbit secondary antibodies were used at dilution of about 1:10,000 (Jackson ImmunoResearch, West Grove, Pa.). […]

A549 cells [1] = assay: ECIS migration / wound closure assay; conditions: for wound closure efficiency (continuous impedance sensing): A549 cells, 12 hours prior to wounding, vs control cells; for cell migration (ECIS): A549 lung cancer cells
Experimental: Migration Assay. Migration assay was performed on the ECIS machine (Name, Address). Briefly, A549 cells were grown on electric cell substrate impedance sensing 8-well plate arrays (8W1E; Applied Biophysics, Troy, N.Y.) in F12K media as described above. Confluent cells were treated with media containing γ-AAPeptide at desired concentration for about 12 hours prior to wounding. Cells were wounded using an elevated field pulse of about […] at about 32,000 Hz applied for about 20 seconds, producing a uniform circular lesion of about […] in size, and wound closure was tracked until healing. The impedance (Z) was measured at about 32000 Hz, normalized to its value at the initiation of data acquisition, and plotted as a function of time. Assays were performed in triplicate and reported as mean±S.E. unless stated otherwise (p value of ≤0.05 was considered to be significant).

p-AKT (Ser473) = assay: Immunoblot of p-AKT (Ser473) in treated A549 cells; conditions: 6 hours; for expression of p-AKT (Ser473), immunoblot: 40 μM, n=3; for decrease in phosphorylated, active form of AKT (pAKT-Ser473): about 40 μM
Experimental: as §1, §2

A549 cells [2] = assay: Flow cytometry cell cycle analysis; conditions: for cell cycle arrest: 24 hour treatment, vs vehicle treated cells
Experimental: Flow Cytometry Assay for Cell Cycle Analysis. Cell cycle analysis was performed on A549 cells treated with indicated amount of γ-AAPeptide at about 50-60% confluency for about 24 hours. After about 24 hours of indicated γ-AAPeptide treatment, cells were trypsinized and centrifuged at about 2,000 rpm for about 10 minutes. Media and trypsin were aspirated and cells were washed twice with PBS and spun at about 2,000 rpm for about 10 minutes at about 4° C. after each wash. Cells were then stained with trypan blue (Thermo Fisher Scientific, Waltham, Mass.) and counted using a hemocytometer. Cells were resuspended in Phosphate Buffered Saline (PBS) at a density of about 2×10^6 cells/mL. 1 mL of cells was fixed in about 3 mL ice cold absolute ethanol for about 1 hour at about 4° C. After fixing, cells were washed twice with PBS and spun at about 3,000 rpm for about 10 minutes at about 4° C. after each wash. About 1 mL of Propidium Iodide (P1) staining solution (about 3.8 mM sodium citrate, about 40 μg/mL PI and PBS to volume) was added to each cell pellet, along with about 50 μL of RNase A (Qiagen, Hilden, Germany) at a concentration of about 10 μg/mL. Cells were incubated at about 37° C. for about 20 minutes and sub-sequentially stored at 4° C. until analyzed by flow cytometry. Assays were performed in triplicate and reported as mean±S.E. (p value of ≤0.05 was considered to be significant).

[3] = system: PTEN C-terminus (C-tail) cluster (Ser380, Thr382, Thr383, Ser385); assay: Immunoblot of PTEN C-tail phosphorylation in treated A549 cells; conditions: about 40 μM
Experimental: as §1
Protein Isolation and Immuno-blotting. For treatment with γ-AAPeptides, A549 cells were grown to about 50-60% confluency in 6-well plates, treated with indicated amount of γ-AAPeptide and allowed to incubate for 6 hours at about 5% CO2 and 37° C. […] Protein concentration was determined using Bradford Dye Reagent (BioRad, Hercules, Calif.). […]

A549 cells [4] = assay: Cell proliferation assay (Cell Counting Kit-8); conditions: 24 hours treatment; 9000 cells/well; n=6
Experimental: Proliferation Assays. Cell proliferation studies were performed using the Cell Counting Kit-8 (Dojindo Molecular Technologies, Rockville, Md.). A549 cells were plated in a 96-well plate with a cell density of about 9000 cells/well and cultured in F12K medium as described above. Cells were treated with indicated amount of γ-AAPeptide diluted in F12K media for 24 hours. After 24 hours, final cell numbers were assessed as a function of absorbance at 450 nm of reduced WST-(2-(2-methoxy-4-nitrophenyl)-3-(4-nitrophenyl)-5-(2,4-disulfophenyl)-2H-tetrazolium, monosodium salt).

SMILES	reduction of phosphorylated, active form of P70S6K (p-P70S6K-Thr389) levels (p-P70 S6K (Thr389))	expression of p-P70 S6K (Thr389), immunoblot (p-P70 S6K (Thr389))	wound closure efficiency (continuous impedance sensing) (A549 cells [1]; 30 μM)	cell migration (ECIS) (A549 cells [1])	expression of p-AKT (Ser473), immunoblot (p-AKT (Ser473))	decrease in phosphorylated, active form of AKT (pAKT-Ser473) (p-AKT (Ser473))	G1 cell population (A549 cells [2]; 40 μM, 24 hours)	G2 phase cell population (A549 cells [2]; 40 μM, 24 hours)	S phase cell population (A549 cells [2]; 40 μM, 24 hours)	cell cycle arrest (A549 cells [2])	phosphorylation status of the PTEN C-terminus (C-tail) cluster [3]	A549 cell proliferation (A549 cells [4])	wound closure efficiency (continuous impedance sensing) (A549 cells [1]; 20 μM)	G1 cell population (A549 cells [2]; 20 μM, 24 hours)	G2 phase cell population (A549 cells [2]; 20 μM, 24 hours)	S phase population (A549 cells [2]; 20 μM, 24 hours)
NCCCC[C@H](N)C(=O)N[C@@H](Cc1ccccc1)CN(CC(=O)NCc1ccc(-c2ccccc2)cc1)C(=O)CC12CC3CC(CC(C3)C1)C2 [#43]	about 75%	significant decrease	decrease in wound closure efficiency	inhibit cell migration	significant decrease	~30%	increase	decreased	decreased	arrest cells in G1 phase	did not appear to alter	reduced A549 cell proliferation in a dose dependent manner; also recorded: Dose-dependent inhibition	–	–	–	–
NCCCC[C@H](N)C(=O)N[C@@H](Cc1ccccc1)CN(CC(=O)N(Cc1cccc2ccccc12)Cc1cccc2ccccc12)C(=O)C[C@]12CC3C[C@H](C[C@H](C3)C1)C2 [#9]	about 55%	significant decrease	–	inhibit cell migration	significant decrease	about 70%	–	–	–	arrested the cell cycle in both G1 and G2 phases	did not appear to alter	reduced A549 cell proliferation in a dose dependent manner; also recorded: Dose-dependent inhibition	decrease in wound closure efficiency	increase	increase	decreased

Source: patent publication US11078164B1, “PTEN binding compounds, formulations, and uses thereof” (University of South Florida, priority 2017, dated 2021)
